Common to all, as to format: in vivo
Assay [1] concerns Phaedon cochleariae. Nature of the assay: Phaedon cochleariae spray test (Chinese cabbage leaf discs, larvae). To be noted: foliar, 168 h, read-out: Wirkung. From the text: (§1) Zur Herstellung einer zweckmäßigen Wirkstoffzubereitung löst man 1 Gewichtsteil Wirkstoff mit den angegebenen Gewichtsteilen Lösungsmittel und füllt mit Wasser, welches eine Emulgatorkonzentration von 1000 ppm enthält, bis zum Erreichen der gewünschten Konzentration auf. Zur Herstellung weiterer Testkonzentrationen wird mit emulgatorhaltigem Wasser verdünnt.
Chinakohlblattscheiben (Brassica pekinensis) werden mit einer Wirkstoffzubereitung der gewünschten Konzentration gespritzt und nach dem Abtrocknen mit Larven des Meerrettichblattkäfers (Phaedon cochleariae) besetzt.
Nach 7 Tagen wird die Wirkung in % bestimmt. Dabei bedeutet 100 %, dass alle Käferlarven abgetötet wurden; 0 % bedeutet, dass keine Käferlarven abgetötet wurden.

The test system of assay [2] is Spodoptera frugiperda. Put plainly: Spodoptera frugiperda spray test (maize leaf discs, caterpillars). As to conditions: foliar, 168 h, Aufwandmenge 500g/ha, after 7 days, read-out: Wirkung.
Text: as §1
Maisblattscheiben (Zea mays) werden mit einer Wirkstoffzubereitung der gewünschten Konzentration gespritzt und nach dem Abtrocknen mit Raupen des Heerwurms (Spodoptera frugiperda) besetzt.
Nach 7 Tagen wird die Wirkung in % bestimmt. Dabei bedeutet 100 %, dass alle Raupen abgetötet wurden; 0 % bedeutet, dass keine Raupe abgetötet wurde.

Assay [3] has as its system Ctenocephalides felis. Nature of the assay: Ctenocephalides felis oral test (feeding on treated citrated cattle blood). To be noted: 48 h, Aufwandmenge 100ppm, after 2 days, read-out: Wirkung (Abtötung). As to the method: Zwecks Herstellung einer zweckmäßigen Wirkstoffzubereitung vermischt man 10 mg Wirkstoff mit 0,5 ml Dimethylsulfoxid. Durch Verdünnen mit citriertem Rinderblut erhält man die gewünschte Konzentration.
Ca. 20 nüchterne adulte Katzenflöhe (Ctenocephalides felis) werden in eine Kammer eingesetzt, die oben und unten mit Gaze verschlossen ist. Auf die Kammer wird ein Metallzylinder gestellt, dessen Unterseite mit Parafilm verschlossen ist. Der Zylinder enthält die Blut-Wirkstoffzubereitung, die von den Flöhen durch die Parafilmmembran aufgenommen werden kann.
Nach 2 Tagen wird die Abtötung in % bestimmt. Dabei bedeutet 100 %, dass alle Flöhe abgetötet wurden; 0 % bedeutet, dass keiner der Flöhe abgetötet wurde.

Consider 42 molecules from EP3284739A1, “SUBSTITUTED (HET) ARYL COMPOUNDS AS PESTICIDES” (Bayer CropScience Aktiengesellschaft, priority 2017, dated 2018).

Turning to `CCC(=O)Nc1cc(-c2ccc(C(F)(F)C(F)(F)F)c(F)c2)cc(NC(=O)CC)n1` [I-058], the mortality at 500 g/ha in assay [1] and in assay [2] was 100% each time.

As for `O=C(Nc1cc(NC(=O)C2CC2)cc(-c2ccc(C(F)(F)C(F)(F)F)c(F)c2)c1)C1CC1` [I-050], the mortality at 100 µg/mL in assay [3] came out at 100%. Also, the mortality at 500 g/ha in assay [1] and in assay [2] was 100% throughout.

For `CC(C)C(=O)Nc1cc(-c2ccc(C(F)(F)C(F)(F)F)c(F)c2)cc(NC(=O)C2CC2)n1` [I-054], the mortality at 500 g/ha in assay [1] and in assay [2] was 100% in each case.

`O=C(Nc1cc(-c2cc(F)c(C(F)(F)C(F)(F)F)c(F)c2)cc(NC(=O)C2CC2)n1)C1CC1` [I-044]: the mortality at 500 g/ha in assay [2] was 100%.

As to `O=C(Nc1cc(-c2ccc(C(F)(F)C(F)(F)F)c(F)c2F)cc(NC(=O)C2CC2)n1)C1CC1` [I-045], the mortality at 500 g/ha in assay [1] and in assay [2] was 100% throughout.

As to `CC(=O)Nc1cc(-c2ccc(C(F)(F)C(F)(F)F)c(F)c2)cc(NC(C)=O)n1` [I-059], the mortality at 500 g/ha in assay [1] and in assay [2] was 100% throughout.

For the molecule `CC1(C(=O)Nc2cc(-c3ccc(OC(F)(F)F)cc3)cc(NC(=O)C3CC3)n2)CC1` [I-004], the mortality at 100 µg/mL in assay [3] came to 100%. Also, the mortality at 500 g/ha in assay [1] and in assay [2] was 100% in each case.

Regarding `CC(C)C(=O)Nc1cc(-c2ccc(OC(F)(F)F)cc2)cc(NC(=O)C2CC2)n1` [I-018], in assay [3], the mortality at 100 µg/mL worked out at 100%. The mortality at 500 g/ha in assay [1] and in assay [2] was 100% each time.

For the molecule `O=C(Nc1cc(-c2ccc(OC(F)(F)F)cc2)cc(NC(=O)C2(Cl)CC2)n1)C1CC1` [I-013], in assay [2], the mortality at 500 g/ha was determined as 100%.

Consider `O=C(Cc1ccc(C(F)(F)F)cc1)Nc1cc(-c2ccc(OC(F)(F)F)cc2)cc(NC(=O)C2CC2)n1` [I-002], for which, in assay [2], the mortality at 500 g/ha was 100%.

As to `N#CC1(C(=O)Nc2cc(-c3ccc(C(F)(F)C(F)(F)F)c(F)c3)cc(NC(=O)C3CC3)n2)CC1` [I-057], the mortality at 500 g/ha in assay [2] came out at 100%.

As for `Cc1cc(-c2cc(NC(=O)C3CC3)nc(NC(=O)C3CC3)c2)cc(F)c1C(F)(F)C(F)(F)F` [I-040], the mortality at 500 g/ha in assay [1] and in assay [2] was 100% throughout.

With `N#CCCC(=O)Nc1cc(-c2ccc(OC(F)(F)F)cc2)cc(NC(=O)C2CC2)n1` [I-025], the mortality at 500 g/ha came to 83% in assay [1] and 100% in assay [2].

Regarding `O=C(Nc1cc(-c2cc(F)c(C(F)(F)C(F)(F)F)cc2Cl)cc(NC(=O)C2CC2)n1)C1CC1` [I-042], the mortality at 500 g/ha in assay [2] was 100%.

As for `O=C(Nc1cc(-c2c(F)cc(C(F)(F)C(F)(F)F)c(F)c2F)cc(NC(=O)C2CC2)n1)C1CC1` [I-062], the mortality at 500 g/ha in assay [1] and in assay [2] was 100% in each case.

For `O=C(Nc1cc(-c2cc(F)c(C(F)(F)C(F)(F)F)c(F)c2F)cc(NC(=O)C2CC2)n1)C1CC1` [I-047], the mortality at 500 g/ha in assay [2] was 83%.

Consider `N#Cc1ccc(CC(=O)Nc2cc(NC(=O)C3CC3)cc(-c3ccc(C(F)(F)C(F)(F)F)c(F)c3)c2)cc1` [I-061], for which the mortality at 500 g/ha in assay [2] amounted to 83%.

As to `N#Cc1ccc(C(=O)Nc2cc(-c3ccc(OC(F)(F)F)cc3)cc(NC(=O)C3CC3)n2)cc1` [I-027], the mortality at 100 µg/mL in assay [3] was 100%. In addition, the mortality at 500 g/ha in assay [1] and in assay [2] was 100% in each case.

Take `CCCC(=O)Nc1cc(-c2ccc(OC(F)(F)F)cc2)cc(NC(=O)C2CC2)n1` [I-023]: the mortality at 100 µg/mL in assay [3] is 100%. In addition, the mortality at 500 g/ha in assay [1] and in assay [2] was 100% each time.

As to `CC(=O)Nc1cc(-c2ccc(OC(F)(F)F)cc2)cc(NC(=O)C2CC2)n1` [I-022], the mortality at 100 µg/mL in assay [3] was determined as 100%. In addition, the mortality at 500 g/ha in assay [1] and in assay [2] was 100% in each case.

With `N#Cc1ccc(CC(=O)Nc2cc(-c3ccc(OC(F)(F)F)cc3)cc(NC(=O)C3CC3)n2)cc1` [I-007], the mortality at 100 µg/mL in assay [3] came out at 100%. Further, the mortality at 500 g/ha in assay [2] came out at 83%.

For the molecule `CCC(=O)Nc1cc(-c2ccc(C(F)(F)C(F)(F)F)c(F)c2)cc(NC(=O)C2CC2)n1` [I-055], the mortality at 100 µg/mL in assay [3] is 100%. For the same molecule, the mortality at 500 g/ha in assay [1] and in assay [2] was 100% each time.

With `CC(C)C(=O)Nc1cc(-c2ccc(C(F)(F)C(F)(F)F)c(F)c2)cc(NC(=O)C(C)C)n1` [I-052], the mortality at 100 µg/mL in assay [3] is 100%. The mortality at 500 g/ha in assay [1] and in assay [2] was 100% each time.

Take `CC(C)(C(=O)Nc1cc(-c2ccc(OC(F)(F)F)cc2)cc(NC(=O)C2CC2)n1)c1ccccc1` [I-010]: the mortality at 500 g/ha in assay [1] is 100%.

As for `CC(C)(C#N)C(=O)Nc1cc(-c2ccc(OC(F)(F)F)cc2)cc(NC(=O)C2CC2)n1` [I-009], in assay [2], the mortality at 500 g/ha was found to be 100%.

As to `O=C(Nc1cc(-c2ccc(OC(F)(F)F)cc2)c(Cl)c(NC(=O)C2CC2)n1)C1CC1` [I-038], in assay [2], the mortality at 500 g/ha came out at 83%.

On to `CC(=O)Nc1cc(-c2ccc(C(F)(F)C(F)(F)F)c(F)c2)cc(NC(=O)C2CC2)n1` [I-056], for which the mortality at 500 g/ha in assay [1] and in assay [2] was 100% each time.

Consider `O=C(Nc1cc(-c2cc(F)c(C(F)(F)C(F)(F)F)c(Cl)c2)cc(NC(=O)C2CC2)n1)C1CC1` [I-053], for which the mortality at 500 g/ha in assay [1] and in assay [2] was 100% each time.

Turning to `CCC(=O)Nc1cc(-c2ccc(OC(F)(F)F)cc2)cc(NC(=O)C2CC2)n1` [I-020], the mortality at 500 g/ha in assay [1] and in assay [2] was 100% throughout.

For the molecule `O=C(Nc1cc(-c2cc(F)c(C(F)(F)C(F)(F)F)cc2F)cc(NC(=O)C2CC2)n1)C1CC1` [I-048], the results for the mortality at 500 g/ha in assay [1] and in assay [2] were 83% and 100%, respectively.

For `CC(C)C(=O)Nc1cc(NC(=O)C(C)C)cc(-c2ccc(C(F)(F)C(F)(F)F)c(F)c2)c1` [I-051], in assay [3], the mortality at 100 µg/mL is 100%. Further, the mortality at 500 g/ha in assay [1] and in assay [2] was 100% in each case.

Take `O=C(Nc1cc(-c2ccc(OC(F)(F)F)cc2)cc(NC(=O)C2CC2)n1)C1CCCC1` [I-021]: the mortality at 100 µg/mL in assay [3] was determined as 100%. The mortality at 500 g/ha in assay [2] was determined as 100%.

Take `O=C(Nc1cc(-c2ccc(C(F)(F)C(F)(F)F)c(Cl)c2)cc(NC(=O)C2CC2)n1)C1CC1` [I-046]: the mortality at 100 µg/mL in assay [3] came to 100%. In addition, the mortality at 500 g/ha in assay [1] and in assay [2] was 100% in each case.

In the case of `CCCCC(=O)Nc1cc(-c2ccc(OC(F)(F)F)cc2)cc(NC(=O)C2CC2)n1` [I-019], the mortality at 500 g/ha in assay [1] and in assay [2] was 100% in each case.

On to `N#CC1(C(=O)Nc2cc(-c3ccc(OC(F)(F)F)cc3)cc(NC(=O)C3CC3)n2)CC1` [I-005], for which the mortality at 100 µg/mL in assay [3] came out at 100%. Further, the mortality at 500 g/ha in assay [1] stood at 83%; in assay [2], 100%.

As to `O=C(Nc1cc(-c2c(F)cc(C(F)(F)C(F)(F)F)cc2F)cc(NC(=O)C2CC2)n1)C1CC1` [I-041], in assay [2], the mortality at 500 g/ha was found to be 83%.

As for `O=C(Nc1cc(-c2ccc(OC(F)(F)F)cc2)cc(NC(=O)C2CC2(C2CC2)C2CC2)n1)C1CC1` (centres unmarked) [I-028], the mortality at 100 µg/mL in assay [3] was 100%. The mortality at 500 g/ha in assay [1] and in assay [2] was 100% each time.

Take `N#Cc1cccc(CC(=O)Nc2cc(-c3ccc(OC(F)(F)F)cc3)cc(NC(=O)C3CC3)n2)c1` [I-003]: the mortality at 100 µg/mL in assay [3] is 100%. Also, the mortality at 500 g/ha in assay [2] worked out at 100%.

As for `CC1(C(=O)Nc2cc(-c3ccc(OC(F)(F)F)cc3)cc(NC(=O)C3CC3)n2)CCCC1` [I-011], the mortality at 500 g/ha in assay [2] is 100%.

Turning to `Cc1cc(-c2cc(NC(=O)C3CC3)nc(NC(=O)C3CC3)c2)ccc1C(F)(F)C(F)(F)F` [I-043], in assay [3], the mortality at 100 µg/mL stood at 100%. Further, the mortality at 500 g/ha in assay [1] and in assay [2] was 100% throughout.

As to `O=C(Nc1cc(-c2ccc(OC(F)(F)F)cc2)cc(NC(=O)C2CC2)n1)c1ccccc1` [I-026], the mortality at 100 µg/mL in assay [3] amounted to 100%. The mortality at 500 g/ha came out at 83% in assay [1] and 100% in assay [2].

With `CC(C)(C(=O)Nc1cc(-c2ccc(OC(F)(F)F)cc2)cc(NC(=O)C2CC2)n1)C(F)(F)F` [I-016], the mortality at 500 g/ha in assay [1] and in assay [2] was 100% in each case.
